# Laboratory results from US10881653B2, “Tricyclic compounds and their use in the treatment of cancer” (The United States of America, as represented by the …, priority 2015, dated 2021).
# Counter-ions that a name gives are not always drawn. Like-named read-outs stand apart in the source and are kept apart here.
# Experiments:
# [1] = target: T1, recombinant thioredoxin reductase 1 (TrxR1) (Homo sapiens, UniProt Q16881); assay: Inhibition of recombinant TrxR1 (DTNB assay); format: biochemical
# T1 sequence (Q16881 1-649): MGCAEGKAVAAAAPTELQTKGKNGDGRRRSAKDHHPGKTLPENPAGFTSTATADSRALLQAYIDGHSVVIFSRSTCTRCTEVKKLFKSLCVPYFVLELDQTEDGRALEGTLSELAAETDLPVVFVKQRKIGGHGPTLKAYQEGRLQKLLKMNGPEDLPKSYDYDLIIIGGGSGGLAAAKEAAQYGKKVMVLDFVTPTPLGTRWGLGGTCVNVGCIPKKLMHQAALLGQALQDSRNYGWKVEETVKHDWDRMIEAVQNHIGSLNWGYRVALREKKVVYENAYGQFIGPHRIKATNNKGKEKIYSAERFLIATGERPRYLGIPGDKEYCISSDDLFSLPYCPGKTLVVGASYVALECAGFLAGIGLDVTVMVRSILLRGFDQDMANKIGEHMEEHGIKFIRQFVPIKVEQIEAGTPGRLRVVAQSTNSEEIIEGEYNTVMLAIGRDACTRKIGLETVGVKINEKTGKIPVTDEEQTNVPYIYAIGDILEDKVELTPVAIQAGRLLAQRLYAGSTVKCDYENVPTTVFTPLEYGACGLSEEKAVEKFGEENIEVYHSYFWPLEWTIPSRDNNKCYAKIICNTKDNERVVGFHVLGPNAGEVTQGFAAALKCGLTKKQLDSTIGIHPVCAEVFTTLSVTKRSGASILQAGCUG
# Procedure, shortened: (§1)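 Human TrxR1 (15 nM) or GR (2 nM) preincubated 15 min with compound, 250 μM NADPH, 0.1 mg/ml BSA in 50 mM Tris pH 7.5, 2 mM EDTA, 1% DMSO. Reaction started with 2.5 mM DTNB (TrxR1, A412) or 1 mM GSSG (GR, A340). Percent activity relative to DMSO and no-enzyme blanks.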
# [2] = target: T2, gluthathione reductase (GR) (Homo sapiens, UniProt P00390); assay: Inhibition of recombinant GR (GSSG assay); format: biochemical
# T2 sequence (P00390 44-522): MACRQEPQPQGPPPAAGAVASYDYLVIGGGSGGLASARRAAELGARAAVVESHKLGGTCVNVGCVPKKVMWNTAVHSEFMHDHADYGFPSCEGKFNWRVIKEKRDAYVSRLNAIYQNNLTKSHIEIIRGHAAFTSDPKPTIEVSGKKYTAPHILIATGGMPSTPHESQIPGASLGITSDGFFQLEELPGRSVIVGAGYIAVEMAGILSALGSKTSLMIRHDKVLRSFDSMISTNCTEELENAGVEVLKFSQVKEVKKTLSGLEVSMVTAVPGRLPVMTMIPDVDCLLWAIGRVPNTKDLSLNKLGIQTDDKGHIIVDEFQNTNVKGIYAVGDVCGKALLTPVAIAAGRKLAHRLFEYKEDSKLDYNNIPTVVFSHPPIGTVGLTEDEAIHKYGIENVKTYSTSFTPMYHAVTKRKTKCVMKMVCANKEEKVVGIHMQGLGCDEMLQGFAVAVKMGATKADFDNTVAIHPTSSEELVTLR
# Procedure, shortened: as §1
# [3] = Biological Example 4, assays of Biological Example 1, read-out: TrxR Inhibition
# [4] = Biological Example 4, assays of Biological Example 1
Structure (SMILES),"IC50 [1, 3] [µM]","IC50 [2, 4] [µM]","IC50 ([1]; Biological Example 1, 15 nM TrxR1, 250 μM NADPH, 15 minutes incubation, read-out: TrxR inhibition) [µM]","IC50 ([2]; Biological Example 1, 2 nM GR, 250 μM NADPH, 15 minutes incubation) [µM]"
O=C1C=C[C@H]2C3C(=O)N(c4ccccc4)C(=O)C3[C@@H]1N2Cc1cccc(F)c1 (stereo partly drawn) [Example 28],2.71,29.8,,
"O=C1C=CC2C3C(=O)N(c4ccccc4)C(=O)C3C1N2Cc1cccc(F)c1F (stereo not drawn) [Example 31, exo-11-(2,3-Difluorobenzyl)-4-phenyl-4,11-diazatricyclo[5.3.1.0^2,6]undec-9-ene-3,5,8-trione Trifluoroacetate]",1.06,> 100,,
"O=C1C=CC2C3C(=O)N(c4ccccc4)C(=O)C3C1N2Cc1cccc(C(F)(F)F)c1 (stereo not drawn) [Example 32, 4-Phenyl-11-(3-trifluorobenzyl)-4,11-diazatricyclo[5.3.1.0^2,6]undec-9-ene-3,5,8-trione Trifluoroacetate]",1.44,35.8,,
"Cc1cc(C)cc(CN2C3C=CC(=O)C2C2C(=O)N(c4ccccc4)C(=O)C23)c1 (stereo not drawn) [Example 33, exo-11-(3,5-Dimethylbenzyl)-4-phenyl-4,11-diazatricyclo[5.3.1.0^2,6]undec-9-ene-3,5,8-trione Trifluoroacetate]",1.33,> 100,,
"O=C1C=CC2C3C(=O)N(c4ccccc4)C(=O)C3C1N2Cc1cccc(Br)c1 (stereo not drawn) [Example 34, exo-11-(3-Bromobenzyl)-4-phenyl-4,11-diazatricyclo[5.3.1.0^2,6]undec-9-ene-3,5,8-trione Trifluoroacetate]",1.23,> 100,,
"Cc1cccc(CN2C3C=CC(=O)C2C2C(=O)N(c4ccccc4)C(=O)C23)c1F (stereo not drawn) [Example 35, exo-11-(2-Fluoro-3-methylbenzyl)-4-phenyl-4,11-diazatricyclo[5.3.1.0^2,6]-undec-9-ene-3,5,8-trione Trifluoroacetate]",1.06,> 100,,
"N#Cc1cccc(CN2C3C=CC(=O)C2C2C(=O)N(c4ccccc4)C(=O)C23)c1 (stereo not drawn) [Example 36, 3-((4-Phenyl-3,5,10-trioxo-4,11-diazatricyclo[5.3.1.0^2,6]undec-8-en-11-yl)-methyl)benzonitrile Trifluoroacetate]",1.47,68.5,,
"Cc1cc(CN2C3C=CC(=O)C2C2C(=O)N(c4ccccc4)C(=O)C23)ccc1F (stereo not drawn) [Example 37, exo-11-(4-Fluoro-3-methylbenzyl)-4-phenyl-4,11-diazatricyclo[5.3.1.0^2,6]-undec-9-ene-3,5,8-trione Trifluoroacetate]",0.93,> 100,,
"Cc1ccc(F)c(CN2C3C=CC(=O)C2C2C(=O)N(c4ccccc4)C(=O)C23)c1F (stereo not drawn) [Example 38, endo-11-(2,6-Difluoro-3-methylbenzyl)-4-phenyl-4,11-diazatricyclo-[5.3.1.0^2,6]undec-9-ene-3,5,8-trione Trifluoroacetate]",1.36,12.3,,
"Cc1ccc(F)c(CN2C3C=CC(=O)C2C2C(=O)N(c4ccccc4)C(=O)C23)c1F (stereo not drawn) [Example 39, exo-11-(2,6-Difluoro-3-methylbenzyl)-4-phenyl-4,11-diazatricyclo[5.3.1.0^2,6]-undec-9-ene-3,5,8-trione Trifluoroacetate]",1.29,> 100,,
"O=C1C=CC2C3C(=O)N(c4ccccc4)C(=O)C3C1N2Cc1cc(Cl)ccc1F (stereo not drawn) [Example 40, exo-11-(5-Chloro-2-fluorobenzyl)-4-phenyl-4,11-diazatricyclo[5.3.1.0^2,6]-undec-9-ene-3,5,8-trione Trifluoroacetate]",0.77,31.6,,
"O=C1C=CC2C3C(=O)N(c4ccccc4)C(=O)C3C1N2Cc1cccc(Cl)c1 (stereo not drawn) [Example 41, endo-11-(3-Chlorobenzyl)-4-phenyl-4,11-diazatricyclo[5.3.1.0^2,6]undec-9-ene-3,5,8-trione Trifluoroacetate]",2.35,49.5,,
"O=C1C=CC2C3C(=O)N(c4ccccc4)C(=O)C3C1N2Cc1cccc(Cl)c1 (stereo not drawn) [Example 42, exo-11-(3-Chlorobenzyl)-4-phenyl-4,11-diazatricyclo[5.3.1.0^2,6]undec-9-ene-3,5,8-trione Trifluoroacetate]",0.76,76.4,,
"O=C1C=CC2C3C(=O)N(c4ccccc4)C(=O)C3C1N2Cc1cc(F)cc(F)c1 (stereo not drawn) [Example 43, 11-(3,5-Difluorobenzyl)-4-phenyl-4,11-diazatricyclo[5.3.1.0^2,6]undec-9-ene-3,5,8-trione Trifluoroacetate]",1.59,91.7,,
Cc1cccc(CN2[C@@H]3C(=O)C=C[C@H]2C2C(=O)N(C)C(=O)C23)c1 (stereo partly drawn) [Example 52],1.81,> 100,,
"CN1C(=O)C2C(C1=O)C1C(=O)C=CC2N1C (stereo not drawn) [Example 60, exo-4,11-Dimethyl-4,11-diazatricyclo[5.3.1.0^2,6]undec-9-ene-3,5,8-trione Trifluoroacetate]",15.4,> 100,,
"Cc1cccc(CN2[C@@H]3C(=O)C=C[C@H]2C2C(=O)N(c4cccc(N5CCOCC5)c4)C(=O)C23)c1 (stereo partly drawn) [Example 69, endo-11-(3-Methylbenzyl)-4-(3-(4-morpholino)phenyl)-4,11-diazatricyclo-[5.3.1.0^2,6]undec-9-ene-3,5,8-trione Trifluoroacetate]",4.15,> 100,7.4,> 100
